Data set [1] relates to rat passive peritoneal anaphylaxis. As to the kind of experiment: Rat passive peritoneal anaphylaxis (PPA). The format is in vivo. The following applies: mean ± SEM, 3-7 rats per group. The source says: (a) inhibit rat passive peritoneal anaphylaxis; and
(a) Rat passive peritoneal anaphylaxis (PPA)
The method has been described previously (Ross, Janet W., Smith, H. and Spicer, Barbara A. Increased vascular permeability during passive peritoneal anaphylaxis in the rat. Int. Arch. Allergy appl. Immun. 51, 226, 1976.)
Serum containing heat-labile homocytotropic antibody was raised in rats to ovalbumin by a method similar to that described by Mota, I. (The mechanism of anaphylaxis. I. Production and biological properties of mast cell sensitising antibody. Immunology, 7, 681; 1964). Male Wistar rats of 250-300 g were given intraperitoneal injections of 0.5 ml of Bordetella pertussis vaccine (4×10^10 organisms/ml; Burroughs Wellcome, London) and subcutaneous injections of 0.5 ml of an emulsion of 100 mg of ovalbumin in 2 ml of isotonic saline and 3 ml of Freund's incomplete adjuvant. The rats were bled by cardiac puncture on day 18, the blood was pooled and the serum separated, stored at -20° C. and thawed only once before use. The serum produced PCA activity in recipient rats down to a dilution of 1:32 to 1:64 after 72 hr and persisted for several days. This activity was lost to a dilution of 1:2 by heating at 56° for 4 hr even when the sensitising period was reduced to 4 hr.
Passive peritoneal anaphylaxis
Rats were given intraperitoneal injections of 2 ml of a 1:5 dilution of the rat anti-serum in isotonic saline. 2 hr later 0.3 ml of a 5% solution of Pontamine Sky Blue (Raymond A. Lamb, London) is isotonic saline was injected intravenously, followed by an intraperitoneal injection of the test compound in 1 ml of saline; (control rats received 1 ml of saline); followed 30 sec. later by an intraperitoneal injection of 5 ml of a Tyrode solution containing 50 μg/ml heparin and 0.4 mg/ml of ovalbumin. The concentrations of the compounds were quoted as those in the 6 ml of fluid injected intraperitoneally. Extractly 5 min. after challenge the rats were stunned and bled and their peritoneal fluids were collected by opening their peritoneal cavities over funnels into polycarbonate tubes in ice. The supernatants were separated from the cellular residue by centrifuging at 150 g for 5 min. and any samples obviously contaminated with blood were discarded and the remainder were retained for estimation of dye, histamine and SRS-A. Groups of at least 5 rats were used for each dose of compound and the treatments were randomized.
Assay of peritoneal fluids
Collected peritoneal fluids were immediately cooled to 0° C. and centrifuged and the supernatant fluids assayed for dye within 2 hr. 0.5-ml samples of the supernatants were added to 1 ml of 12% trichloracetic acid and stored at -20° C. and used to assay for histamine. The remainders of the supernatant fluids were placed in a boiling water bath for 5 min. and stored frozen at -20° C. until assayed for SRS-A.
The optical densities (OD) at 625 nm of the supernatants were determined. Samples were taken from supernatants with an OD greater than 2 and diluted in Tyrode's solution before reading.
Histamine was assayed using an automated spectrofluorimetric system (Technicon Autoanalyser) by a method similar to that of Evans, D. P., Lewis, J. A. and Thomson, D. S.: (An automated fluorimetric assay for the rapid determination of histamine in biological fluids. Life Sci. 12,327, 1973).
SRS-A was assayed on the isolated guinea pig ileum preparation in the presence of atropine (5×10^-7 M) and mepyramine maleate (10^-6 M), the latter to abolish the histamine response. (Brocklehurst, W. E. The release of histamine and formulation of a slow reacting substance (SRS-A) during anaphylactic shock. J. Physiol., Lond. 151, 416, 1960). Bulked peritoneal fluids from passively sensitised and challenged rats were centrifuged, heated, stored at -20° C. in 0.5 ml aliquots, and used as a reference SRS-A standard, and arbitrarily designated as containing 10 Units per ml. […]

Data set [2] concerns the target T1, histamine (spasmogenic effects) on isolated guinea pig ileum (Cavia porcellus, UniProt P31389).
T1 construct: isolated guinea pig ileum; from tissue; host or cells: isolated guinea pig ileum
Briefly: Anti-histamine activity in vitro on guinea pig ileum (pA2). Conditions: for Kb: read-out: pA2 Mean ± SEM (antihistamine activity in vitro) (converted). The procedure:
(b) antagonise the spasmogenic effects of histamine on isolated guinea pig ileum.
(b) Measurement of anti-histamine activity in vitro on guinea pig ileum using the […]
The pA2 of the compound was determined in a similar manner to that described by Schild, H. O. (pA, A new scale for the measurement of drug antagonism. Brit. J. Pharmacol. 2, 189, 1947).

For a further data set, the system named is mice. Briefly: Acute intravenous toxicity in mice. The format is in vivo, mouse.
Setting [3] is: contact time 10.0 min, (part assay) for 4d.

SMILES strings stand for the structures. Like-named read-outs stand apart in the source and are kept apart here.

We go through 6 molecules from patent publication US4263299A, “Heterocyclic coumarin derivatives” (Beecham Group Limited, priority 1978, dated 1981).

T1 sequence (P31389 whole entry): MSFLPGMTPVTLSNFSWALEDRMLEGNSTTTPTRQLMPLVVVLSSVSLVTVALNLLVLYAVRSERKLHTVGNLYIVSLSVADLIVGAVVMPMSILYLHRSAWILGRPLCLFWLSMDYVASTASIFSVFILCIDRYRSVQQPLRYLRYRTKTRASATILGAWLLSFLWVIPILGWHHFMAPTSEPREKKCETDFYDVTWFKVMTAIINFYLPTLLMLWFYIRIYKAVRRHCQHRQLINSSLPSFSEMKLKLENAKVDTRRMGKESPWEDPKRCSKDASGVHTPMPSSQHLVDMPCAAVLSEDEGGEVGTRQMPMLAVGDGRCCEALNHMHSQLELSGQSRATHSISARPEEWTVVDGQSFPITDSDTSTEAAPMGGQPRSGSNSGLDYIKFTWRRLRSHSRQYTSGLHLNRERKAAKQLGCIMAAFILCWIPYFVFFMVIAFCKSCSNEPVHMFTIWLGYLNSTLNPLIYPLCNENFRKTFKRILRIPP

In the case of `O=c1oc2cc(OCC(O)CN3CCN(Cc4ccc(Cl)cc4)CC3)ccc2c(O)c1[N+](=O)[O-]` (centres unmarked) [Example 2d, 1-(4-Chlorobenzyl)-4-[2-hydroxy-3-(4-hydroxy-3-nitrocoumarin-7-yloxy)propyl]piperazine], the results for the “Dye concentration in peritoneal fluid as % of that in control rats not given compound” value in data set [1] (2 × 10^-5 M injected i.p.) and in data set [1] (2 × 10^-6 M injected i.p.) were 36 ± 4% and 46 ± 4%, respectively. The “Histamine concentration in peritoneal fluid as % of that in control rats not given compound” value in data set [1] (2 × 10^-5 M injected i.p.) is reported as 13 ± 0.9%; in data set [1] (2 × 10^-6 M injected i.p.), 23 ± 1.0%. The “SRSA concentration in peritoneal fluid as % of that in control rats not given compound” value turned out to be 47 ± 11% in data set [1] (2 × 10^-5 M injected i.p.) and 65 ± 13% in data set [1] (2 × 10^-6 M injected i.p.). The Kb is 50.1 nM in data set [2] (contact time 0.5 min) and 20 nM in data set [2] (contact time 2.0 min). For the same molecule, the “pA2 Mean ± SEM (antihistamine activity in vitro)” value (shortened to “pA2 Mean ± SEM”) in data set [2] (setting [3]) was determined as 8.3.

As for `O=c1oc2cc(OCCCN3CCN(Cc4ccccc4)CC3)ccc2c(O)c1[N+](=O)[O-]` [Example 6d, 1-Benzyl-4-[3-(4-hydroxy-3-nitrocoumarin-7-yloxy)propyl]piperazine], the “Dye concentration in peritoneal fluid as % of that in control rats not given compound” value in data set [1] (2 × 10^-4 M injected i.p.) turned out to be 67 ± 10%; in data set [1] (2 × 10^-5 M injected i.p.), 91 ± 12%. For the same molecule, the “Histamine concentration in peritoneal fluid as % of that in control rats not given compound” value was 12 ± 1.0% in data set [1] (2 × 10^-4 M injected i.p.) and 56 ± 8% in data set [1] (2 × 10^-5 M injected i.p.). Moreover, the “SRSA concentration in peritoneal fluid as % of that in control rats not given compound” value in data set [1] (2 × 10^-4 M injected i.p.) is 55 ± 5%; in data set [1] (2 × 10^-5 M injected i.p.), 86 ± 14%. Besides, the Kb in data set [2] (contact time 0.5 min) is 79.4 nM; in data set [2] (contact time 2.0 min), 25.1 nM. The “pA2 Mean ± SEM” value in data set [2] (setting [3]) came out at 7.9.

As to `O=c1oc2cc(OCCCN3CCN(Cc4ccc(Cl)cc4)CC3)ccc2c(O)c1[N+](=O)[O-]` [Example 1f, 1-(4-Chlorobenzyl)-4-[3-(4-hydroxy-3-nitrocoumarin-7-yloxy)propyl]piperazine], the “Dye concentration in peritoneal fluid as % of that in control rats not given compound” value in data set [1] (2 × 10^-6 M injected i.p.) was 32.1 ± 3.6%; in data set [1] (2 × 10^-7 M injected i.p.), 88.1 ± 8.3%; in data set [1] (2 × 10^-8 M injected i.p.) it was 100 ± 16.7%. Also, the “Histamine concentration in peritoneal fluid as % of that in control rats not given compound” value in data set [1] (2 × 10^-6 M injected i.p.) was found to be 28.4 ± 3.4%; in data set [1] (2 × 10^-7 M injected i.p.), 75.8 ± 7.5%; in data set [1] (2 × 10^-8 M injected i.p.) it was 99.6 ± 8.3%. Further, the “SRSA concentration in peritoneal fluid as % of that in control rats not given compound” value in data set [1] (2 × 10^-6 M injected i.p.) stood at 62.5 ± 17.2%; in data set [1] (2 × 10^-7 M injected i.p.), 71.8 ± 14.8%; in data set [1] (2 × 10^-8 M injected i.p.), 100 ± 14.8%. The “Deaths in mice at the high dose” value with mice (mice, intravenous, 300 mg/kg, group of three) is given as “all animals died”. Moreover, the “Deaths in mice during four days” value with mice (mice, intravenous, 1, 3 and 10 mg/kg, three groups of ten) is given as “No deaths occurred”. The “Deaths in mice at the two lower doses” value with mice (mouse, in vivo) is listed as “none”. The values for the Kb in data set [2] (contact time 0.5 min), in data set [2] (contact time 2.0 min) and in data set [2] (setting [3]) were 15.8 nM, 2.51 nM and 0.631 nM, respectively.

Turning to `O=c1oc2cc(OCCN3CCN(Cc4ccc(Cl)cc4)CC3)ccc2c(O)c1[N+](=O)[O-]` [Example 4d, 1-(4-Chlorobenzyl)-4-[2-(4-hydroxy-3-nitrocoumarin-7-yloxy)ethyl]piperazine], the “Dye concentration in peritoneal fluid as % of that in control rats not given compound” value came out at 40 ± 7% in data set [1] (2 × 10^-4 M injected i.p.) and 65 ± 11% in data set [1] (2 × 10^-5 M injected i.p.). In addition, the “Histamine concentration in peritoneal fluid as % of that in control rats not given compound” value in data set [1] (2 × 10^-4 M injected i.p.) is listed as 11 ± 0.9%; in data set [1] (2 × 10^-5 M injected i.p.), 39 ± 8%. In addition, the “SRSA concentration in peritoneal fluid as % of that in control rats not given compound” value in data set [1] (2 × 10^-4 M injected i.p.) is on record as 26 ± 6%; in data set [1] (2 × 10^-5 M injected i.p.) it was 73 ± 7%. Also, the Kb was 63.1 nM in data set [2] (contact time 0.5 min), 50.1 nM in data set [2] (contact time 2.0 min) and ~126 nM in data set [2] (setting [3]).

With `CCCc1c(OCC(O)CN2CCN(Cc3ccc(Cl)cc3)CC2)ccc2c(O)c([N+](=O)[O-])c(=O)oc12` (centres unmarked) [Example 3d, 1-(4-chlorobenzyl)-4-[2-hydroxy-3-(4-hydroxy-3-nitro-8-n-propylcoumarin-7-yloxy)propyl]piperazine], in data set [1] (2 × 10^-5 M injected i.p.), the “Dye concentration in peritoneal fluid as % of that in control rats not given compound” value worked out at 47 ± 6%, the “Histamine concentration in peritoneal fluid as % of that in control rats not given compound” value worked out at 15 ± 2% and the “SRSA concentration in peritoneal fluid as % of that in control rats not given compound” value worked out at 75 ± 9%. Besides, in data set [1] (2 × 10^-6 M injected i.p.), the “Dye concentration in peritoneal fluid as % of that in control rats not given compound” value was determined as 79 ± 9%, the “Histamine concentration in peritoneal fluid as % of that in control rats not given compound” value worked out at 55 ± 9% and the “SRSA concentration in peritoneal fluid as % of that in control rats not given compound” value came out at 81 ± 6%. The Kb in data set [2] (contact time 0.5 min) was 25.1 nM. Further, the Kb in data set [2] (contact time 2.0 min) is 10 nM. Further, the “pA2 Mean ± SEM” value in data set [2] (setting [3]) is given as 8.4.

With `O=c1oc2cc(CN3CCN(Cc4ccc(Cl)cc4)CC3)ccc2c(O)c1[N+](=O)[O-]` [Example 5e, 1-(4-Chlorobenzyl)-4-[(4-hydroxy-3-nitrocoumarin-7-yl)methyl]piperazine], the “Dye concentration in peritoneal fluid as % of that in control rats not given compound” value is 28 ± 9% in data set [1] (2 × 10^-4 M injected i.p.), 88 ± 14% in data set [1] (2 × 10^-5 M injected i.p.) and 103 ± 13% in data set [1] (2 × 10^-6 M injected i.p.). The “Histamine concentration in peritoneal fluid as % of that in control rats not given compound” value stood at 17 ± 3% in data set [1] (2 × 10^-4 M injected i.p.), 31 ± 2% in data set [1] (2 × 10^-5 M injected i.p.) and 93 ± 18% in data set [1] (2 × 10^-6 M injected i.p.). In addition, the “SRSA concentration in peritoneal fluid as % of that in control rats not given compound” value is 67 ± 15% in data set [1] (2 × 10^-5 M injected i.p.) and 94 ± 10% in data set [1] (2 × 10^-6 M injected i.p.). The Kb in data set [2] (contact time 0.5 min) and in data set [2] (contact time 2.0 min) was 2000 nM throughout. The “pA2 Mean ± SEM” value in data set [2] (setting [3]) came to 5.6.
